{"source": "paper PMC11996967", "about": "“Targeting the Notch-Furin axis with 2-hydroxyoleic acid: a key mechanism in glioblastoma therapy” (Cellular Oncology, 2024)", "key": {"furin": {"molecular_target": "T1, furin (Homo sapiens, UniProt P09958)", "T1 construct": "commercial recombinant Human Furin", "T1 sequence (P09958 108-794)": "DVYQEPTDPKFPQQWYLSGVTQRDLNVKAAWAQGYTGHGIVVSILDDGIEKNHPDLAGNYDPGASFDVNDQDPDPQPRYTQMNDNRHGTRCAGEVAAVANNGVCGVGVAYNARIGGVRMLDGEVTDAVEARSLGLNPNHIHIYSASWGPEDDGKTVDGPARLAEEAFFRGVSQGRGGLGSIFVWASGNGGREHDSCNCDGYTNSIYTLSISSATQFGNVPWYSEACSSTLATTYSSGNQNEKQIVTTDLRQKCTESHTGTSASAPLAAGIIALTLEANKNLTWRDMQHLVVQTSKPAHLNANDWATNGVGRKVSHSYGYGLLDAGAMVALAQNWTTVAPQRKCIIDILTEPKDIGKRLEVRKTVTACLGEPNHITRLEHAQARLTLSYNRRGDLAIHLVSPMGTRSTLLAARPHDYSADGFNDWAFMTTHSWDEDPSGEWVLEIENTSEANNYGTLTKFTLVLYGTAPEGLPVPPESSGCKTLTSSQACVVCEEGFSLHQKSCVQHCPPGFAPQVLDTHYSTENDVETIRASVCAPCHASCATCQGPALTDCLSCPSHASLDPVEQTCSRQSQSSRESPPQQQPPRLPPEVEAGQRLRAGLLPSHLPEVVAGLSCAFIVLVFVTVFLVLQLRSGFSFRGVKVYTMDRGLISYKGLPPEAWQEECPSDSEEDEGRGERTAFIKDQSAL", "assay": "SPR (Biacore X100, furin amine-coupled on CM5, steady-state affinity); also inhibits recombinant furin in a fluorimetric assay", "assay_type": "binding"}, "SF-268": {"test_system": "SF-268", "assay": "cells", "set-up": "glioma cell line sensitivity to 2OHOA, half maximal inhibitory concentration", "conditions": "Homo sapiens, SF-268"}, "SF-295": {"test_system": "SF-295", "assay": "cells", "set-up": "glioma cell line sensitivity to 2OHOA, half maximal inhibitory concentration", "conditions": "Homo sapiens, SF-295"}, "U-87 MG": {"test_system": "U-87 MG", "assay": "cells", "set-up": "glioma cell line sensitivity to 2OHOA, half maximal inhibitory concentration", "conditions": "Homo sapiens, U-87 MG"}, "U-118 MG": {"test_system": "U-118 MG", "assay": "cells", "set-up": "glioma cell line sensitivity to 2OHOA, half maximal inhibitory concentration", "conditions": "Homo sapiens, U-118-MG"}, "U-251 MG": {"test_system": "U-251 MG", "assay": "cells", "set-up": "glioma cell line sensitivity to 2OHOA, half maximal inhibitory concentration", "conditions": "Homo sapiens, U-251"}}, "data": [{"smiles": "CCCCCCCC/C=C\\CCCCCCC(O)C(=O)O", "note": "(stereo not drawn) [2OHOA, 2-hydroxy-9-cis-ocadecenoic acid]", "values": [{"measurement": "Kd", "setting": "furin", "result": 19.5, "unit": "µM"}, {"measurement": "IC50", "setting": "SF-268", "result": 240, "unit": "µM"}, {"measurement": "IC50", "setting": "SF-295", "result": 300, "unit": "µM"}, {"measurement": "IC50", "setting": "U-87 MG", "result": 172, "unit": "µM"}, {"measurement": "IC50", "setting": "U-118 MG", "result": 180, "unit": "µM"}, {"measurement": "IC50", "setting": "U-251 MG", "result": 427, "unit": "µM"}]}]}
